Data on one molecule can be found in patent US7250442B2, “Dihydroindol-2-one derivatives as steroid hormone nuclear receptor modulators” (Eli Lilly and Company, priority 2003, dated 2007).

The target in the test is T1, glucocorticoid receptor (Homo sapiens, UniProt P04150).
T1 construct: host or cells: A549 human lung epithelial cells (sonicated cell extract)
T1 sequence (P04150 1-777): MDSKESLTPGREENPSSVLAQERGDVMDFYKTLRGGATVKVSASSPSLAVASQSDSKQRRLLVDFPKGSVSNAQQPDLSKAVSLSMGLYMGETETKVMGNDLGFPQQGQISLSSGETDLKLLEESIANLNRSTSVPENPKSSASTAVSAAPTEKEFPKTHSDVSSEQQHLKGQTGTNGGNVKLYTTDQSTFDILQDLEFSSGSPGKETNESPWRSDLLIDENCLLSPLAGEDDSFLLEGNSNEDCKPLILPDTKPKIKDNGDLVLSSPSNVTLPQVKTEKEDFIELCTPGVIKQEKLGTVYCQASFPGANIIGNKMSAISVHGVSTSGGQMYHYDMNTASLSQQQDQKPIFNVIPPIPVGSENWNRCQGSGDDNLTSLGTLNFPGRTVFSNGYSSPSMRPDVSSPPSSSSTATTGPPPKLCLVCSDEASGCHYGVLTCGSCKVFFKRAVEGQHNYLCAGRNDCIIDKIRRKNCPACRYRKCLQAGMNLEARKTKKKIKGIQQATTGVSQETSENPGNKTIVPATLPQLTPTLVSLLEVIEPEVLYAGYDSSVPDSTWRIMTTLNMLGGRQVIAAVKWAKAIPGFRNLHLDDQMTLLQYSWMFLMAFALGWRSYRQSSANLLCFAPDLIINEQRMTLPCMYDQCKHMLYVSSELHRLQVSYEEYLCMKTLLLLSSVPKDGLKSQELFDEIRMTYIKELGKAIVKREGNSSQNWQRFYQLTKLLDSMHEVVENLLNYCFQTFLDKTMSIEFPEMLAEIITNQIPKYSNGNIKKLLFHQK
As to the kind of experiment: Glucocorticoid Receptor Binding Assay ([3H]-dexamethasone displacement, A549 cell extract). Particulars: A549 human lung epithelial cell extract, 1.86 nM [3H]-dexamethasone; read-out: GR Ki. The procedure, abridged:
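A549 cell extract (50-200 ug; buffer 50 mM Tris-HCl pH 7.2 with glycerol, NaCl, MgCl2, EDTA, 10 mM molybdate) incubated with 1.86 nM [3H]-dexamethasone and test compound, 16 h at 4 °C. Unbound ligand removed with dextran-coated charcoal; bound radioactivity counted. IC50 converted to Ki via Cheng-Prusoff.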

One may read the Ki as a measure of affinity in units of concentration, obtained from inhibition or displacement.

Consider `Cc1cc(C2(c3cc(C)c(O)c(C)c3)C(=O)N(Cc3ccc(Cl)c(Cl)c3)c3ccccc32)cc(C)c1O` [Example 52, 1-(3,4-Dichloro-benzyl)-3,3-bis-(4-hydroxy-3,5-dimethyl-phenyl)-1,3-dihydro-indol-2-one], for which the Ki is no more than 0.5 µM.
